Laboratory results reported in US20240150346A1, “CLASS OF HETEROAROMATIC COMPOUND, PREPARATION METHOD THEREFOR AND USE THEREOF” (INNOVSTONE THERAPEUTICS LIMITED, priority 2021, published 2024).
Counter-ions that a name gives are not always drawn.

Target: T1, human-detived receptor TLR8 (Homo sapiens, UniProt Q9NR97)
T1 construct: host or cells: HEK-Blue hTLR8 cells (HEK293-derived reporter line)
T1 sequence (Q9NR97 27-1041): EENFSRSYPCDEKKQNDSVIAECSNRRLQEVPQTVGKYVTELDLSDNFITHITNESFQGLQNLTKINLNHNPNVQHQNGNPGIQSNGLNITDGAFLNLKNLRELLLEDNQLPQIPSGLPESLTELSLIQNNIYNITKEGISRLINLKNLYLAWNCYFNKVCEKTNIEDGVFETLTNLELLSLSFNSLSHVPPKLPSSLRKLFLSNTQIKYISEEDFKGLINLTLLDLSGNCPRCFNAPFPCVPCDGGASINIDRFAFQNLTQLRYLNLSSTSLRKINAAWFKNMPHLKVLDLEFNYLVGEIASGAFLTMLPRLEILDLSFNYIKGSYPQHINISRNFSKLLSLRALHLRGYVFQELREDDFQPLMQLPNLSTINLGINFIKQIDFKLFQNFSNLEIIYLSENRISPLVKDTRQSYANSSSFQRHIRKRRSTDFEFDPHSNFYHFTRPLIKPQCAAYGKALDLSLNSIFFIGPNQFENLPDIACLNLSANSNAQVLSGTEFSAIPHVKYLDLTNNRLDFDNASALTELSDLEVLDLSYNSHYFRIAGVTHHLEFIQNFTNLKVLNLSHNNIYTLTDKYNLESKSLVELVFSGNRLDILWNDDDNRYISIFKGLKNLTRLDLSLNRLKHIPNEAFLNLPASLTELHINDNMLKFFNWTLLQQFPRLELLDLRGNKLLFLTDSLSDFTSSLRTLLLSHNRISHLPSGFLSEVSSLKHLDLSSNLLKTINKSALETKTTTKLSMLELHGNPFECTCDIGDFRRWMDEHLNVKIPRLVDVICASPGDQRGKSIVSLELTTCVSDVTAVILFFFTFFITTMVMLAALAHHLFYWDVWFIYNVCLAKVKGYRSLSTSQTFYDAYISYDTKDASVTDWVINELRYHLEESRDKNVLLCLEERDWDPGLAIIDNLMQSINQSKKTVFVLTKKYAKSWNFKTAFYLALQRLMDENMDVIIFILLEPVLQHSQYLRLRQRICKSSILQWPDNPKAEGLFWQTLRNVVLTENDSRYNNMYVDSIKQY
Assay: Assay on agonistic activity for human-detived receptor TLR8 (HEK-Blue hTLR8 cells, HEK-Blue Detection Medium)
Format: cell-based
Conditions: 16 h incubation, absorbance at 620 nm
Protocol: The assay on the agonistic activity for human-detived receptor TLR7 was performed as that in Test Example 1; • the method for assaying the agonistic activity for the human-detived receptor TLR8 was as follows: HEK-Blue™ hTLR8 cells (InvivoGen, hkb-htlr8) were cultured in a DMEM complete medium (Gibco, 11965-092) containing 10% FBS (Invitrogen, 10099-141c), 1% P/S (Invitrogen, 15140-122), 10 μg/mL Blasticidin (InvivoGen, R210-01), 100 μg/mL Zeocin (InvivoGen, ant-zn), and 100 μg/mL Normocin (InvivoGen, Ant-nr-2). The cells were cultured in an incubator at 37° C. with 5% CO2. When HEK-Blue™ hTLR8 cells reached a growth density of 70%-80%, cell passage was needed.
The agonistic activity for the human-detived receptor TLR8 by HEK-Blue™ hTLR8 cells was assayed by HEK-Blue™ Detection Medium (InvivoGen, hb-det3). First, a bag of HEK-Blue™ Detection Medium powder was completely dissolved, and then filtered through a 0.22 μm filter. Antibiotics were then added until the final concentration was 1% P/S and 100 μg/mL Normocin. HEK-Blue™ Detection Medium was pre-heated to 37° C. in advance on the day of the assay on the activity for the TLR8 receptor, and the temperature was always maintained at 37° C.
The compound powder was dissolved in 100% DMSO (Sigma, D8418-1L) to obtain a 10 mM stock solution, and the compound was completely dissolved by shaking with an oscillator for later use.
The cell culture medium was removed from HEK-Blue™ hTLR8 cells with a growth density of 70-80%. Then, the cells were washed 2-3 times with PBS (Gibco, 10010-031). The cells were digested and then pipetted with a DMEM cell culture medium to a single cell suspension, which was then centrifuged at 1000 rpm for 10 min to collect the cell pellet. […] The cells were counted, diluted to a plating density, and transferred to a 384-well cell culture plate (Corning, 3764). […] After incubation in an incubator at 37° C. for 16 h, the absorbance was read at 620 nm using a microplate reader (PerkinElmer, VICTOR Nivo).
The EC50 of the compound was calculated using the GraphPad Prism 8 software (GraphPad Software, USA). The reading of the negative control well (the well without the compound) was subtracted from the absorbance reading at 620 nm of the compound, and was divided by the ratio of the difference between the positive control (1 μM positive compound) and the negative control well, so that the percentage of the ratio of each well to the ratio of the positive control well (the well treated with 10 μM positive compound), i.e., the percentage of activity, was calculated. Finally, the sigmoidal dose-response (variable slope) curve between the percentage of activity and the concentration of the compound was calculated using the software GraphPad Prism to calculate the EC50 of the compound.

Row | EC50 | Compound
1 | > 10 µM | CSc1nc2c(N)nc3ccccc3c2n1Cc1ccc(CN2CCCC2)cc1 [Example 40, 2-(methylthio)-1-(4-(pyrrolidin-1-ylmethyl)benzyl)-1H-imidazo[4,5-c]quinoline-4-amine]
2 | > 10 µM | COc1nc2c(N)nc3ccccc3c2n1Cc1ccc(CN2CCCC2)cc1 [Comparative Example 1, 2-methoxy-1-((4-((pyrrolidin-1-yl)methyl)phenyl)methyl)-1H-imidazo[4,5-c]quinolin-4-amine trifluoroacetate, reference compound]
3 | > 10 µM | COc1cc(CN(C)C)ccc1Cn1c(SC)nc2c(N)nc3ccccc3c21 [Example 240]
4 | > 10 µM | CSc1nc2c(N)nc3ccccc3c2n1Cc1ccc(N2CCN(C)CC2)nc1 [Example 199]
